Assay results taken from the Biogen ADME set (Fang et al. 2023).
Values after ≈ are worked out from the molar mass of the structure shown.

Conditions: for aqueous solubility: pH 6.8

Compound | aqueous solubility | intrinsic clearance, human liver microsomes | intrinsic clearance, rat liver microsomes | MDR1-MDCK efflux ratio | fraction unbound, human plasma | fraction unbound, rat plasma
c1cnn(-c2ccc(-c3ccc(NC4CC4)nn3)cc2)c1 | 0.78 µg/mL (≈ 2.81 µM) | – | – | – | – | –
CNC(=O)c1ccc(Nc2ncc(C(F)(F)F)c(NCc3nccnc3N(C)S(C)(=O)=O)n2)cc1 | 1.9 µg/mL (≈ 3.72 µM) | 28.1 mL/min/kg | 141 mL/min/kg | – | – | –
CC(C)c1nc2c(n1C)CCN(c1ncnc3ccsc13)C2 | 54.4 µg/mL (≈ 173 µM) | 21.7 mL/min/kg | 567 mL/min/kg | 3.28 | – | –
NC(=O)Cn1nnc(-c2ccccc2)n1 | 11 µg/mL (≈ 54.1 µM) | – | – | – | – | –
CNC(=O)CCc1nc(-c2ccccn2)no1 | 50.5 µg/mL (≈ 217 µM) | ≤ 4.74 mL/min/kg | ≤ 10.7 mL/min/kg | 1.05 | – | –
Cc1ccc(Oc2ccc(Cl)cc2NC(=O)CN(C)CC(=O)N(C)C)cc1 | – | 1050 mL/min/kg | 2420 mL/min/kg | 1.61 | 0.00885 | –
COc1cccc(/C=C2/N=C(c3ccccc3)NC2=O)c1OC | 0.33 µg/mL (≈ 1.07 µM) | – | – | – | – | –
CCCn1cc(CNc2ncccn2)cn1 | – | ≤ 4.74 mL/min/kg | 56.5 mL/min/kg | – | – | –
Cc1nc(NCc2ccc(F)c(Cl)c2)n(C)n1 | 43.7 µg/mL (≈ 172 µM) | 7.77 mL/min/kg | 35.6 mL/min/kg | 0.789 | – | –
N#Cc1ccc(N2CCc3c(ncn3C3CC3)C2)nc1 | 45.5 µg/mL (≈ 172 µM) | 13.4 mL/min/kg | 63.7 mL/min/kg | 0.877 | – | –
COCc1nn(CCCN2CCCCC2)c(=O)o1 | – | ≤ 4.74 mL/min/kg | 370 mL/min/kg | 0.662 | – | –
CCN(CCO)Cc1nc2cc(OC)c(OC)cc2c(=O)[nH]1 | – | ≤ 4.74 mL/min/kg | ≤ 10.7 mL/min/kg | 31.2 | – | –
O=C(c1ccc(Cn2nnc(-c3cccc(F)c3)n2)cc1)N1CCCC1 | 10.8 µg/mL (≈ 30.7 µM) | 12.1 mL/min/kg | 125 mL/min/kg | 0.793 | – | –
COc1cccc(CN2CCc3nc(-c4cnccn4)nc(O)c3C2)c1 | – | ≤ 4.74 mL/min/kg | 26.6 mL/min/kg | – | – | –
CCCCCCCCc1ccc2c(c1)CC[C@@H](C(N)(CO)CO)C2 | 0.81 µg/mL (≈ 2.43 µM) | – | – | – | – | –
CC1(C)Cc2cc(CN3CCC4(CC3)NC(=O)N(Cc3ccccc3)C4=O)ccc2O1 | 36.4 µg/mL (≈ 86.6 µM) | 55.8 mL/min/kg | 294 mL/min/kg | 7.73 | – | –
CC(=O)NCc1ccc(-c2ccccc2C(=O)O)cc1 | 31.2 µg/mL (≈ 116 µM) | – | – | – | – | –
Cc1sc2nc(CN3CCC(C)CC3)nc(N3CCN(c4cnccn4)CC3)c2c1C | 42 µg/mL (≈ 96 µM) | 228 mL/min/kg | 1980 mL/min/kg | 9.31 | – | –
O=C(O)CNc1nc(-c2ccccc2)nc2ccccc12 | 25.4 µg/mL (≈ 90.8 µM) | ≤ 4.74 mL/min/kg | 29.4 mL/min/kg | 0.737 | – | –
O=c1c2ccccc2cnn1Cc1cccc(OCC(F)(F)F)c1 | – | ≤ 4.74 mL/min/kg | 51.3 mL/min/kg | 35.9 | – | –
CC(C)c1nc(/C=C/c2cnn(C)c2)ncc1C(=O)O | – | ≤ 4.74 mL/min/kg | ≤ 10.7 mL/min/kg | – | – | –
c1ccc(Oc2cccc(CN(CCN3CCOCC3)Cc3cccnc3)c2)cc1 | 66.7 µg/mL (≈ 165 µM) | 1250 mL/min/kg | 3870 mL/min/kg | 1.33 | 0.00599 | 0.0139
CCOc1cc2nn(CCC(C)(C)O)cc2cc1NC(=O)c1cccc(C(F)F)n1 | 3.55 µg/mL (≈ 8.48 µM) | ≤ 4.74 mL/min/kg | ≤ 10.7 mL/min/kg | 11 | 0.0126 | 0.0186
O=C1CCC(=O)N1CCN1CCCCc2ccccc21 | 55.8 µg/mL (≈ 205 µM) | 122 mL/min/kg | 1470 mL/min/kg | 0.651 | – | –
CCNC(=O)N1CCC2(CCc3ccccc3O2)CC1 | 66.7 µg/mL (≈ 243 µM) | 6.22 mL/min/kg | 884 mL/min/kg | 0.737 | – | –
CN(C)c1ccc(C(=O)N2CCN3C(=O)N(Cc4ccccc4)C(=O)[C@H]3C2)cc1 | 13.6 µg/mL (≈ 34.7 µM) | 30 mL/min/kg | 389 mL/min/kg | 1.61 | – | –
CS(=O)(=O)CCNC(=O)N1CC2(CCCC2)c2ccccc21 | 47.4 µg/mL (≈ 147 µM) | 9.64 mL/min/kg | 192 mL/min/kg | 3.67 | – | –
CCCn1ncc2[nH]c(C3CCCCC3)nc21 | 22.4 µg/mL (≈ 96.5 µM) | 19.9 mL/min/kg | 83.7 mL/min/kg | 1.26 | – | –
CCCn1ncc(CN2CCC(c3cc4cccnc4[nH]3)CC2)c1C | – | 41.8 mL/min/kg | 201 mL/min/kg | 8.86 | – | –
CSCc1noc(COc2ccc(F)cc2F)n1 | 17.3 µg/mL (≈ 63.5 µM) | – | – | – | – | –
